Test results published in US20250186379A1, “METHODS AND AGENTS FOR DECREASING INSULIN RESISTANCE” (Whitehead Institute for Biomedical Research, priority 2021, published 2025).

Key:
IR-FKBP condensates = assay: tc-PALM of IR-Dendra2-FKBP condensate lifetime in HepG2 cells; assay type: cell-based, human; settings: HepG2 cells expressing IR-FKBP; 5 μM AP1903 16 hours vs DMSO
From the text: A CRISPR/Cas9 system was used to generate genetically modified HepG2 cell lines. Target sequences were cloned into a plasmid containing sgRNA backbone, a codon-optimized version of Cas9 and mCherry. For IR targeting, two Cas9 gRNAs were used. For the generation of the IR-mEGFP, IR-Dendra2, and IR-Dendra2-FKBP endogenously tagged lines, homology directed repair templates were cloned into pUC19 using NEBuilder HiFi DNA Assembly Master Mix (NEB, E2621S). For IR-mEGFP and IR-Dendra2 cell lines, the homology repair template consisted of mEGFP or Dendra2 cDNA sequence flanked on either side by 800 bp homology arms amplified from HepG2 genomic DNA using PCR (FIG. 27A). […]
Widefield, live-cell, super-resolution imaging was performed in a photo-activation localization microscopy (PALM) approach using a Nikon Eclipse Ti microscope with a 100× oil immersion objective. […] During each imaging cycle, a 2400-frame video stream including a (256 pixel)^2 region of interest (ROI) was recorded in 20 Hz acquisition rate with the EM-gain setting as 1000 on an Andor iXon Ultra 897 EMCCD. […]
Temporal clustering: For each spatial cluster, time-correlated PALM (tc-PALM) analysis was performed along the time axis to extract the truly colocalized, time-correlated multi-molecule bursting events. […] More details about the quantitative validations and statistics of tc-PALM analysis can be found in FIG. 30.

IR-FKBP = assay: Western blotting and imaging of IR activity in HepG2 cells expressing IR-GFP-FKBP; assay type: cell-based, human; settings: 5 μM AP1903 16 hours vs DMSO
From the text: For experiments that forced reduction in IR condensate dynamics, the vector used in this assay was modified from pJH135_pb_MCPx2_mCherry_rTTA vector^11. IR-mEGFP-FKBP, which consists of the insulin receptor cDNA, flexible linker 1, mEGFP, flexible linker 2, and four copies of FKBP, was cloned into PmeI and NheI digested pJH135_pb_MCPx2_mCherry_rTTA using Gibson cloning by following the manufacturer's instructions (NEB, E2621S). This vector is called JP204 pb_TetON_INSR_2A_GFP_Dmbr4.
For experiments that forced reduction in IR condensate dynamics, 1×10^5 cells/cm^2 HepG2 cells were transfected with 0.07 μg/cm^2 pJP204_pb_TetON_INSR_2A_GFP_Dmbr4 using Lipofectamine 3000 (Invitrogen, L3000). On day 2, the cells were treated with 100 ng/ml doxycycline (Sigma, D9891-5G). […]
Cells were washed with ice-cold PBS (Life Technologies, AM9625) and lysed in Cell Lytic M (Sigma Aldrich C2978) supplemented with protease and phosphatase inhibitors (Sigma Aldrich, 11873580001 and 4906837001) directly on the wells. […] Super natant was collected and protein concentration was determined using a BCA Protein Assay Kit (Life Technologies, 23250) according to the manufacturer's instructions. […] Immunoblot quantification was performed using the “analyze gel” tool on Fiji/ImageJ v2.1.0/153c.
To quantify pIRS1 fluorescent signal in IR puncta/condensates manually, Airyscan images were opened on Fiji as composite images. […]

## CC[C@H](C(=O)N1CCCC[C@H]1C(=O)O[C@H](CCc1ccc(OC)c(OC)c1)c1cccc(OCC(=O)NCCNC(=O)COc2cccc([C@@H](CCc3ccc(OC)c(OC)c3)OC(=O)[C@@H]3CCCCN3C(=O)[C@@H](CC)c3cc(OC)c(OC)c(OC)c3)c2)c1)c1cc(OC)c(OC)c(OC)c1 [AP1903]
IR-FKBP condensates
  lifetime of IR condensates: significantly increased the lifetime of IR condensates
IR-FKBP
  IR functional activity (pIR-FKBP, pIRS1): less functionally active
